Data on eight compounds can be found in patent US7741327B2 (Hoffmann-La Roche Inc., priority 2008, dated 2010).

For assay [1], the target named is T1, Recombinant human liver GK1 (GST-GK) (Homo sapiens, UniProt P35557).
T1 construct: made in house; host or cells: E. coli
T1 sequence (P35557 1-466 isoform P35557-2): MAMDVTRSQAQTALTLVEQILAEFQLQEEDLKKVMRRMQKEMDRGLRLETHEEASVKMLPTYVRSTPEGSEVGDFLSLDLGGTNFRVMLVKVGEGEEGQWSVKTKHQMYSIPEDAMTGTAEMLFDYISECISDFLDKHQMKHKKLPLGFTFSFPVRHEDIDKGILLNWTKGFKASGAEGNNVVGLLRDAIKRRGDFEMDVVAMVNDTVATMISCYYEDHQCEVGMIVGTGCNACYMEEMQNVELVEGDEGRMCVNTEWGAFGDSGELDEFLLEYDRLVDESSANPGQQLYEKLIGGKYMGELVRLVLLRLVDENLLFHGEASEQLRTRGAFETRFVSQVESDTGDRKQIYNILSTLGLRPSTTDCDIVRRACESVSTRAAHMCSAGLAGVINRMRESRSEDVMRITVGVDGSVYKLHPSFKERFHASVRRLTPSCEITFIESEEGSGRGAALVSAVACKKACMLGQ
As to the kind of experiment: In vitro glucokinase activity (G6PDH-coupled NADH assay). To be noted: 30° C., 5 mM D-glucose, 10% DMSO. Type of assay: biochemical. The method, boiled down: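 GST-tagged human liver GK1 from E. coli, assayed at 30° C in 25 mM Hepes pH 7.1 with 5 mM D-glucose, 1 mM ATP, 1.8 mM NAD and G6PDH coupling, 10% DMSO final; reaction started with enzyme after 10 min preincubation. NADH formation followed at OD340; SC1.5 is activator concentration giving 50% increase over DMSO control rate.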

A further assay relates to C57B6 mice. Kind of assay: Glucokinase activator in vivo screen: blood glucose lowering in mice after oral dosing. To be noted: Mus musculus, vs control, 4 h post 30 mg/kg oral dose, read-out: % gluc lowering @ 4 H. On the procedure: Glucokinase Activator in vivo Screen Protocol in Lean and Diet Induced Obese Mice: Lean or Diet-Induced Obese (DIO) C57BL/6J mice were orally dosed via gavage with Glucokinase (GK) activator following a two hour fasting period. Blood glucose determinations were made at various (e.g. 0, 1, 2, 4 and 8 h post-oral gavage) times during the study.
C57Bl/6J mice were obtained from Jackson Laboratory (Bar Harbor, Me.) and were maintained in a light-dark cycle with lights on from 0600-1800 hr. For studies in lean mice, the mice were received at age ten weeks and given ad libitum access to control diet (LabDiet 5001 chow, PMI Nutrition, Brentwood, Mo.), and were at least age 11 weeks at the time of study. For studies in the DIO model, the mice were received at age five weeks and given ad libitum access to Bio-Serv F3282 High Fat Diet (Frenchtown, N.J.), and were at least age 16 weeks at the time of study. The experiments were conducted during the light phase of the light-dark cycle. Mice (n=6) are weighed and fasted for a two hour period prior to oral treatment. GK activators are formulated in Gelucire vehicle (Ethanol:Gelucire44/14:PEG400q.s. 4:66:30 v/w/v. For studies in lean mice, the mice were dosed orally with 5.0 μL per gram of body weight (i.e. 5 ml/kg×10.0 mg/ml formulation to equal a 50 mg/kg dose). For studies in DIO mice, the mice were dosed orally with 5.0 μL per gram of body weight (i.e. 5.0 ml/kg×5 mg/ml formulation to equal a 25 mg/kg dose). Immediately prior to dosing, a pre-dose (time zero) blood glucose reading was acquired by snipping off a small portion of the animal's tail and collecting 15 μL blood into a heparinized capillary tube for analysis. Following GK activator administration, additional blood glucose readings were taken at various time points post dose from the same tail wound. Results were interpreted by comparing the mean blood glucose values of vehicle treated mice with GK activator treated mice over the study period.
The Table below provides data for % glucose lowering of a representative number of compounds of the present invention vs control at 4 h post 25 or 30 mg/kg dose in C57B6 mice: […]

Regarding `COc1cccc(OC2=CC(=O)N([C@@H](CC(C)C)C(=O)Nc3ccn(CC(C)(C)O)n3)C2)c1Cl` [Example 48, (S)-2-[4-(2-Chloro-3-methoxy-phenoxy)-2-oxo-2,5-dihydro-pyrrol-1-yl]-4-methyl-pentanoic acid [1-(2-hydroxy-2-methyl-propyl)-1H-pyrazol-3-yl]-amide], in assay [1], the “SC1.5 (concentration of activator that produced a 50% increase in the activity of GK)” value was determined as 0.078 µM. Besides, the change in vivo at 30 mg/kg with C57B6 mice was -57.4%.
The corresponding values for `COc1cccc(OC2=CC(=O)N([C@@H](CC(C)C)C(=O)Nc3ccn(C[C@@H](O)CO)n3)C2)c1Cl` [Example 49] are 0.079 µM and -38.3%.
Consider `COc1cccc(OC2=CC(=O)N([C@@H](CC3CCOCC3)C(=O)Nc3ccn(CC(C)(C)O)n3)C2)c1Cl` [Example 51, (S)-2-[4-(2-Chloro-3-methoxy-phenoxy)-2-oxo-2,5-dihydro-pyrrol-1-yl]-N-[1-(2-hydroxy-2-methyl-propyl)-1H-pyrazol-3-yl]-3-(tetrahydro-pyran-4-yl)-propionamide], for which the “SC1.5 (concentration of activator that produced a 50% increase in the activity of GK)” value in assay [1] worked out at 0.03 µM. For the same compound, the change in vivo at 30 mg/kg in the assay with C57B6 mice is -53.9%.
With `CC(C)C[C@@H](C(=O)Nc1ccn(CC(C)(C)O)n1)N1CC(Oc2ccccc2Cl)=CC1=O` [Example 64, (S)-2-[4-(2-Chloro-phenoxy)-2-oxo-2,5-dihydro-pyrrol-1-yl]-4-methyl-pentanoic acid [1-(2-hydroxy-2-methyl-propyl)-1H-pyrazol-3-yl]-amide], the “SC1.5 (concentration of activator that produced a 50% increase in the activity of GK)” value in assay [1] was determined as 0.125 µM. For the same compound, the change in vivo at 30 mg/kg with C57B6 mice was -58%.
As to `CC(C)C[C@@H](C(=O)Nc1ccn(C[C@@H](O)CO)n1)N1CC(Oc2ccccc2Cl)=CC1=O` [Example 66, (S)-2-[4-(2-Chloro-phenoxy)-2-oxo-2,5-dihydro-pyrrol-1-yl]-4-methyl-pentanoic acid [1-((R)-2,3-dihydroxy-propyl)-1H-pyrazol-3-yl]-amide], the “SC1.5 (concentration of activator that produced a 50% increase in the activity of GK)” value in assay [1] worked out at 0.118 µM. The change in vivo at 30 mg/kg with C57B6 mice is -55.4%.
The corresponding values for `CC(C)C[C@@H](C(=O)Nc1ccn(CC(C)(C)O)n1)N1CC(Oc2cccc(Cl)c2Cl)=CC1=O.Cl` [Example 77, (S)-2-[4-(2,3-Dichloro-phenoxy)-2-oxo-2,5-dihydro-pyrrol-1-yl]-4-methyl-pentanoic acid [1-(2-hydroxy-2-methyl-propyl)-1H-pyrazol-3-yl]-amide Hydrochloride] are 0.162 µM and -39.2%.
The matching figures for `CC(C)(O)Cn1ccc(NC(=O)[C@H](CC2CCCC2)N2CC(Oc3c(F)cccc3F)=CC2=O)n1` [Example 86, (S)-3-Cyclopentyl-2-[4-(2,6-difluoro-phenoxy)-2-oxo-2,5-dihydro-pyrrol-1-yl]-N-[1-(2-hydroxy-2-methyl-propyl)-1H-pyrazol-3-yl]-propionamide]: 0.021 µM and -57.4%.
The corresponding values for `O=C(Nc1ccn(C[C@@H](O)CO)n1)[C@H](CC1CCCC1)N1CC(Oc2c(F)cccc2F)=CC1=O` [Example 88, (S)-3-Cyclopentyl-2-[4-(2,6-difluoro-phenoxy)-2-oxo-2,5-dihydro-pyrrol-1-yl]-N-[1-((R)-2,3-dihydroxy-propyl)-1H-pyrazol-3-yl]-propionamide] are 0.03 µM and -49.3%.
